The source of these data is patent US20260193265A1, “Phyllochlorin analogues suitable for use in photodynamic therapy (PDT)” (RMW CHO Group Limited, priority 2022, published 2026).

Counter-ions that a name gives are not always drawn. Like-named read-outs stand apart in the source and are kept apart here.

Data set [1] deals with Human ovarian cancer cell line SKOV3. Kind of data set: Phototoxicity in SKOV3 cells after 652 nm laser activation (AlamarBlue viability). It counts as cell-based. The conditions noted are these: for range of phototoxicity IC90 values in vitro: result in words. Here is the method: Samples were stored at 4° C. protected from light.
All data are shown as mean±SD (where appropriate).
To test for phototoxicity, cells incubated with phyllochlorin analogues (0-10 μM in DMSO) had culture media replaced after 24 hours (as above) and were then exposed to a 652 nm laser (Invion) with laser density at 50 mW/cm^2 for 5 mins (total 15 J/cm^2). Following activation, cells were cultured for a further 24 hours. Media was then replaced with fresh media containing AlamarBlue, and % viable cells remaining assessed as above. Controls included cells treated with phyllochlorin analogues but not activated by laser light; cells without phyllochlorin analogue treatment but with laser light; and untreated controls. All measurements were made in quadruplicate.
A general note: Alamar Blue is a resazurin reagent that responds to reducing activity.

The test system is the same in data set [2].
Protocol: (§1) Photosensitizers (e.g. phyllochlorin analogue, chlorin e4 disodium (provided by Advanced Molecular Technologies, Scoresby) or Talaporfin sodium (purchased from Focus Bioscience cat #HY-16477-5MG)) were resuspended in 100% dimethylsulfoxide (DMSO) at a concentration of 5.5 mM. Samples were stored at 4° C. protected from light.
(§2) For in vitro experiments, photosensitizers (stock solution 5.5 mM in 100% DMSO) were diluted 1:100 in concentrated excipient solution (final 55 μM photosensitizer in 10% w/v Kollidon-12, 42.4% w/v polysorbate 80, 0.6% w/v citric acid anhydrous, 40% w/v ethanol, 1.0% DMSO). Serial dilutions were prepared in cell culture media (Dulbecco's Modified Eagle Medium/Nutrient Mixture F-12 (DMEM/F-12)) supplemented with 10% v/v Fetal Bovine Serum, 100 U/mL penicillin, 100 μg/mL streptomycin and the same excipient solution at a constant 1:55 dilution.
(§3) Human ovarian cancer cell line SKOV3 (ATCC #HTB-77) was maintained in Dulbecco's Modified Eagle Medium/Nutrient Mixture F-12 (DMEM/F-12), supplemented with 10% v/v Fetal Bovine Serum, 100 U/mL penicillin and 100 μg/mL streptomycin. Monolayer cultures were grown in a humidified incubator at 37° C. with 5% CO2. Once cells had reached ~80% confluence, spent media was replaced with media containing photosensitizer at the required concentration and cells were incubated for the desired period of time to allow photosensitizer uptake.
(§4) All data were analysed using GraphPad PRISM v8.3.1 (549) (GraphPad Software, CA). Spectral absorbance and viability measurements were normalized in the range 0-100%, with a minimum of 0 and a maximum value determined from the dataset. Dose response was determined using a sigmoidal four-point non-linear regression with variable slope, and IC10 or IC90 calculated for each compound. All data are shown as mean±SD (where appropriate).
(§5) SKOV3 cells were seeded in 96-well black wall plates (Greiner #655090) at a cell density of 5000 cells in 100 μl culture medium per well. On reaching ~60% confluence, media was aspirated and replaced with fresh media containing the relevant phyllochlorin analogue from 0-100 μM in DMSO. Cells were incubated for a further 24 hours, allowing uptake of phyllochlorin analogues.
(§6) To test for inherent cytotoxicity (i.e. “dark toxicity”) of the phyllochlorin analogues, the culture media was replaced after 24 hours with fresh media containing 10% (v/v) AlamarBlue Cell Viability Reagent (ThermoFisher) and cells incubated at 37° C. for 6 hours. Untreated cells were used as a control. Fluorescence (Ex 555 nm/Em 596 nm) was measured using a Cytation 3 Cell Imaging Multi-Mode Reader (Biotek), and cytotoxicity assessed according to the % viable cells remaining. All measurements were made in quadruplicate.
(§7) The phototoxicity and inherent cytotoxicity (i.e. “dark toxicity”) of several phyllochlorin analogues were assessed as previously using SKOV3 ovarian cancer cells. For comparative purposes, phyllochlorin analogues were compared against chlorin e4 disodium and Talaporfin sodium, a clinically approved photosensitizer used in the photodynamic treatment of lung cancers. Phototoxicity IC90 values and dark toxicity IC10 values were calculated using a log[inhibitor]-vs normalized response dose curve with variable slope, using the formula Y=100/(1+(IC90/X)^HillSlope (phototoxicity IC90)) or Y=100/(1+(IC10/X)^HillSlope (dark toxicity IC10)).
For data set [3] the test system is unchanged. Kind of data set: Inherent cytotoxicity (dark toxicity) in SKOV3 cells (AlamarBlue viability). Conditions: 24 hours incubation, no light, AlamarBlue 6 hours.
Protocol: as §1, §2, §3, §4, §5, §6, §7
Where [4] appears, read: Homo sapiens, SK-OV-3, light or radiation study, 24 hours uptake, 652 nm laser 50 mW/cm^2 for 5 mins (total 15 J/cm^2), viability 24 hours after activation, read-out: Phototoxicity μM (IC90).
[5] abbreviates: Homo sapiens, SK-OV-3, light or radiation study, 652 nm laser, read-out: apparent phototoxicity IC90.

By IC90 is commonly meant the point of the concentration-response curve where the effect stands at 90%. On to `C=Cc1c(C)c2cc3nc(c(C)c4[nH]c(cc5nc(cc1[nH]2)C(C)=C5CC)c(C)c4C(=O)O)[C@@H](CCC(=O)O)[C@@H]3C` [Chlorin e4 disodium, reference compound], for which the IC90 in data set [1] (24 hours uptake, 652 nm laser 50 mW/cm^2 for 5 mins (total 15 J/cm^2), viability 24 hours after activation, read-out: Phototoxicity μM (IC90)) was determined as 21.3 µM. The “range of phototoxicity IC90 values in vitro” value in data set [1] is reported as “μM range”. In addition, the “Dark toxicity μM (IC10)” value in data set [2] was determined as 40.23 µM.
In the case of `C=Cc1c(C)c2cc3nc(c(C)c4cc(C)c(cc5nc(cc1[nH]2)C(C)=C5CC)[nH]4)[C@@H](CCCO)[C@@H]3C` [Compound 1, 3-((7S,8S)-18-ethyl-2,5,8,12,17-pentamethyl-13-vinyl-7H,8H-porphyrin-7-yl)propan-1-ol], the IC90 in data set [1] (setting [4]) came out at 0.12 µM. Also, the “Dark toxicity μM (IC10)” value in data set [2] (human, 24 h) turned out to be 46.10 µM.
For `C=Cc1c(C)c2cc3nc(c(C)c4cc(C)c(cc5nc(cc1[nH]2)C(C)=C5CC)[nH]4)[C@@H](CCCOC(C)=O)[C@@H]3C` [Compound 2, 3-((7S,8S)-18-ethyl-2,5,8,12,17-pentamethyl-13-vinyl-7H,8H-porphyrin-7-yl)propyl acetate], in that order: 0.48 µM and 66.93 µM.
Turning to `C=Cc1c(C)c2cc3nc(c(C)c4cc(C)c(cc5nc(cc1[nH]2)C(C)=C5CC)[nH]4)[C@@H](CCCSCCCS[C@@H]1O[C@H](CO)[C@@H](O)[C@H](O)[C@H]1O)[C@@H]3C` [Compound 4, (2S,3R,4S,5S,6R)-2-((3-((3-((7S,8S)-18-ethyl-2,5,8,12,17-pentamethyl-13-vinyl-7H,8H-porphyrin-7-yl)propyl)thio)propyl)thio)-6-(hydroxymethyl)tetrahydro-2H-pyran-3,4,5-triol], the IC90 is under 0.1 µM in data set [1] (setting [5]) and 0.07 µM in data set [1] (setting [4]). Also, the “Dark toxicity μM (IC10)” value in data set [2] (human, 24 h) came out at 23.13 µM.
The corresponding values for `C=Cc1c(C)c2cc3nc(c(C)c4cc(C)c(cc5nc(cc1[nH]2)C(C)=C5CC)[nH]4)[C@@H](CCCS[C@@H]1O[C@H](CO)[C@@H](O)[C@H](O)[C@H]1O)[C@@H]3C` [Compound 5] are under 0.1 µM, 0.05 µM and 13.18 µM.
For `C=Cc1c(C)c2cc3nc(c(C)c4cc(C)c(cc5nc(cc1[nH]2)C(C)=C5CC)[nH]4)[C@@H](CCCN)[C@@H]3C` [Compound 7, phyllochlorin 3-aminopropyl], in that order: under 0.1 µM, 0.05 µM and 11.55 µM.
For the compound `C=Cc1c(C)c2cc3nc(c(C)c4cc(C)c(cc5nc(cc1[nH]2)C(C)=C5CC)[nH]4)[C@@H](CCCNC(=O)[C@@H](N)C(C)C)[C@@H]3C` [Compound 8, phyllochlorin 3-aminopropyl-valine amide hydrochloride], the IC90 in data set [1] (setting [5]) was under 0.1 µM; in data set [1] (setting [4]) it was 0.09 µM. Moreover, the “Dark toxicity μM (IC10)” value in data set [2] (human, 24 h) worked out at 11.89 µM.
In the case of `C=Cc1c(C)c2cc3nc(c(C)c4cc(C)c(cc5nc(cc1[nH]2)C(C)=C5CC)[nH]4)[C@@H](CCC[n+]1ccccc1)[C@@H]3C` [Compound 9, phyllochlorin 3-pyridiniumpropyl iodide], the IC90 in data set [1] (setting [4]) was determined as 0.006 µM. Besides, in data set [3], the “Dark toxicity μM (IC10)” value stood at 4.91 µM.
For `C=Cc1c(C)c2cc3nc(c(C)c4cc(C)c(cc5nc(cc1[nH]2)C(C)=C5CC)[nH]4)[C@@H](CCC[P+](c1ccccc1)(c1ccccc1)c1ccccc1)[C@@H]3C` [Compound 10, phyllochlorin 3-triphenylphosphoniumpropyl iodide], in that order: 0.003 µM and 4.52 µM.
With `C=Cc1c(C)c2cc3nc(c(CC(=O)N[C@@H](CC(=O)O)C(=O)O)c4[nH]c(cc5nc(cc1[nH]2)C(C)=C5CC)c(C)c4C(=O)O)[C@@H](CCC(=O)O)[C@@H]3C` [Talaporfin sodium, reference compound], in data set [1], the “range of phototoxicity IC90 values in vitro” value is given as “μM range”. Further, the “Dark toxicity μM (IC10)” value in data set [2] (human, 24 h) stood at 11.10 µM.
